Laboratory results as given in patent publication US20260041679A1, “METHOD OF TREATING HYPERTENSION WITH THE ALDOSTERONE SYNTHASE INHIBITOR BAXDROSTAT” (CINCOR PHARMA, INC., priority 2022, published 2026).
Like-named read-outs stand apart in the source and are kept apart here.

Test: Plasma PK of baxdrostat and baxdrostat-M in the metformin crossover study (Example 6A)
Assay type: in vivo, human
Conditions: single 10-mg dose of baxdrostat
Experimental: This study was designed as a phase 1, randomized, open-label, 2-period, crossover trial. Each subject participated in a screening period of up to 26 days followed by 2 inpatient treatment periods and a follow-up phone call. […] Plasma samples were extracted by protein precipitation with methanol, followed by analysis by LC-MS/MS with ESI(+) and MRM. Reversed-phase chromatographic separation with a mobile phase gradient of 20% to 90% was utilized, and total run time was approximately 5 minutes. […] PK parameters were calculated using noncompartmental methods with SAS software, version 9.4 (SAS Institute). […] Tmax; […] AUC0-t; AUC0-inf, AUC0-inf extrapolated; λz; and t1/2. Plasma AUC0-72 was assessed only for baxdrostat and baxdrostat-M. […] Urine PK parameters included Ae, renal clearance (calculated as Ae/AUC), and the fraction of dose excreted renally.

CCC(=O)N[C@@H]1CCCc2c(-c3ccc4c(c3)CCC(=O)N4C)cncc21 [baxdrostat, (R)—N-(4-(1-methyl-2-oxo-1,2,3,4-tetrahydroquinolin-6-yl)-5,6,7,8-tetrahydroisoquinolin-8-yl) propionamide]
AUC% extrapolated (human): 8.36%
AUC(0-t) (human, read-out: AUC0-24, Mean): 1660 ng·h/mL
AUC(0-t) (human, read-out: AUC0-72, GM): 2790 ng·h/mL
AUC(0-t) (human, read-out: AUC0-72, Mean): 2870 ng·h/mL
AUC(0-inf) (human, read-out: AUC0-inf, GM): 2920 ng·h/mL
AUC(0-inf) (human, read-out: AUC0-inf, Mean): 3030 ng·h/mL
Cmax (human, read-out: Cmax, GM): 117 ng/mL
Cmax (human, read-out: Cmax, Mean): 119 ng/mL
Tmax (human, read-out: Tmax, GM): 1.54 h
Tmax (human, read-out: Tmax, Mean): 1.68 h
AUC0-24, GM: 1637.461 ng·h/mL
λz, GM: 0.032 h⁻¹
λz, Mean: 0.033 h⁻¹
